# Results reported in US8389680B2, “Treatment of Aspergillus infections with alpha thymosin peptides” (SciClone Pharmaceuticals, Inc., priority 2003, dated 2013).
# What was measured:
# [1] = system: p38 and NF-kB; experiment: Analysis of p38 and NF-kB activation on lung DCs; assay type: cell-based, murine; conditions: peptide alone, 20 minutes
# Description: P38 and NF-kB were activated on lung DCs by exposure for 20 minutes at 37° C. to Aspergillus conidia and/or 100 ng/ml TA1. Blots of cell lysates were incubated with rabbit polyclonal Abs recognizing either the unphosphorylated form of p38 MAPK, or the double-phosphorylated (Thr-180/Tyr-182) p38 MAPK, or Abs specific for the Rel A, 65 kDa DNA binding subunit of human NF-kB followed by horseradish peroxidase-conjugated goat anti-rabbit IgG, as per manufacturer's instructions. Blots were developed with an Enhanced Chemiluminescence detection kit. Bands were visualized after exposure of the blots to a Kodak RX film. To ensure similar protein loading in each lane, the phospho blots were stripped and the membranes were reprobed with Abs against p38 and NF-kB.
# [2] = system: murine DCs; experiment: IL-12 p70 and IL-10 production by murine DCs in response to microbial TLR ligands; assay type: cell-based
# Description: Zymosan was from Saccharomyces cerevisiae, lipoteichoic acid (LTA) from Staphylococcus aureus, and lipopolysaccharide (LPS) from Salmonella Minnesota Re 595. The CpG oligonucleotides 1826 and 2006 were proven immunostimulatory sequences. For phagocytosis, DCs were pre-exposed to 100 ng/ml TA1 for 60 minutes and subsequently incubated at 37° C. with Aspergillus conidia for an additional 60 minutes. The percentage of internalization was calculated and photographs were taken. In assessing functional maturation and cytokine determination, purified DCs were resuspended in Iscove's medium (with no serum but with polymixin B, to avoid non-specific activation by serum components and endotoxin) and pulsed with 100 ng/ml TA1 for 24 hours either alone or together with TLR ligands or unopsonized Aspergillus conidia. The levels of TNF-alpha, IL-10, IL-12 p70, IFN-alpha and IL-8 in culture supernatants were determined by Kit ELISAs. The detection limits (pg/ml) of the assays were <3 (human) and <32 (murine) for TNF-alpha, <12 (murine) and <5 (human) for IL-10, <16 (murine) and <3 (human) for IL-12 p70 and <25 (human) IL-8. For human IFN-alpha <3 ng/ml. For enumeration of cytokine-producing cells, an ELISPOT assay was used on purified CD4^+ T cells and DCs from lungs.
# [3] = system: human MDC and PDC subsets; experiment: Activation of human MDC and PDC subsets: phagocytosis, phenotype, cytokine release; assay type: cell-based
# Description: Blood CD 11c^+ myeloid DCs (MDCs) were generated from CD 14^+ mononuclear cells by magnetic cell sorting and cultured for 5 days in Iscove's modified medium, containing 10% fetal bovine serum, 50 micromolar 2-mercaptoethanol, sodium pyruvate (1 mM), 2 mM L-glutamine, HEPES (10 mM), and 50 micrograms/ml gentamycin in the presence of 50 ng/ml rHuman GM-CSF and 200 U/ml rHuman IL-4. Immature MDCs were cultured for 24 hours with 1000 ng/ml trimeric human CD40 ligand-leucine-zipper fusion protein to obtain mature DCs. CD 123^+ plasmacytoid DCs (PDCs) were isolated using the BDCA-4 isolation kit. Purity of CD 123^+ cells was >96%. For mature PDCs, immature DCs were cultured with the trimeric human CD40 ligand as above and 10 ng/ml IL-3. […] The expression of HLA Class II, CD80 and CD86 was high in both immature and mature DCs. Murine lung CD 11c^+ DCs (between 5 to 7% positive for CD8alpha and between 30 to 35% positive for Gr-1) were isolated by magnetic cell sorting. For phagocytosis, DCs were pre-exposed to 100 ng/ml TA1 for 60 minutes and subsequently incubated at 37° C. with Aspergillus conidia for an additional 60 minutes. The percentage of internalization was calculated and photographs were taken. In assessing functional maturation and cytokine determination, purified DCs were resuspended in Iscove's medium (with no serum but with polymixin B, to avoid non-specific activation by serum components and endotoxin) and pulsed with 100 ng/ml TA1 for 24 hours either alone or together with TLR ligands or unopsonized Aspergillus conidia. Cell surface phenotype was assessed by reacting samples with FITC- or PE-conjugated rat anti-mouse antibodies. Unrelated hisotype matched antibodies were used as control. The levels of TNF-alpha, IL-10, IL-12 p70, IFN-alpha and IL-8 in culture supernatants were determined by Kit ELISAs. The detection limits (pg/ml) of the assays were <3 (human) and <32 (murine) for TNF-alpha, <12 (murine) and <5 (human) for IL-10, <16 (murine) and <3 (human) for IL-12 p70 and <25 (human) IL-8. For human IFN-alpha <3 ng/ml. For enumeration of cytokine-producing cells, an ELISPOT assay was used on purified CD4^+ T cells and DCs from lungs.
# [4] = system: Aspergillus conidia; experiment: Antifungal effector activity (conidiocidal activity) of macrophages and neutrophils; assay type: cell-based; conditions: TA1 treated mice
# Description: […] In addition, the conidiocidal activity was assessed by determining the number of colony forming units and the percentage of colony forming units inhibition (mean±SE), referred to as conidiocidal activity.
# [5] = after stimulation with CpG (TLR9)
# [6] = after stimulation with LTA (TLR2)
# [7] = after stimulation with zymosan (TLR2)
substance,measurement,setting,value
"Ac-Ser-Asp-Ala-Ala-Val-Asp-Thr-Ser-Ser-Glu-Ile-Thr-Thr-Lys-Asp-Leu-Lys-Glu-Lys-Lys-Glu-Val-Glu-Glu-Ala-Glu-Asn-O (Ac-SDAAVDTSSEITTKDLKEKKEVEEAEN-OH) [TA1, naturally occurring thymic peptide]",p38 phosphorylation,[1],induced
same,production of IL-10,[2]; [5],decreases
same,production of IL-12 p70,[2]; [5],significantly increased
same,production of IL-10,[2]; [6],decreases
same,production of IL-12 p70,[2]; [6],significantly increased
same,production of IL-10,[2]; [7],decreases
same,production of IL-12 p70,[2]; [7],significantly increased
same,cytokine production (IL-12 p70 and IL-10),[2]; in response to LPS (TLR4),did not affect
same,cytokine production (IL-12 p70 and IL-10),[2]; in response to Poly(I:C),did not affect
same,activation of human MDC and PDC subsets,[3]; 100 ng/ml,activates
same,phagocytic activity of immature DCs,"[3]; Aspergillus conidia, 100 ng/ml pre-exposure 60 minutes",increased
same,IFN-alpha production,"[3]; PDCs, in response to the TLR9 ligand CpG",significantly potentiated
same,DC morphology,[3]; immature MDCs,more cytoplasmic projections
same,release of IL-12 p70,"[3]; immature MDCs, in response to conidia",significantly increase
same,release of IL-12 p70,"[3]; immature MDCs, in response to zymosan",significantly increase
same,release of IL-10,"[3]; immature PDCs, in response to conidia",significantly increase
same,HLA Class II antigens and costimulatory molecule expression,[3]; in response to conidia,up-regulate
same,conidiocidal activity of macrophages,[4],higher
same,conidiocidal activity of neutrophils,[4],higher
